Patent publication US20240216421A1, “COMBINATION PRODUCT AND METHODS FOR PREVENTING THE EMERGENCE OF ANTIBIOTIC-RESISTANT BACTERIA UNDER ANTIBIOTIC TREATMENT” (DIOTHERIS, priority 2021, published 2024)
Entries after “also recorded” stand apart in the source; their conditions may differ.

Experiments:
[1] = system: Corynebacterium species; conditions: natural resistance; mupirocin resistance breakpoint >2 μg/mL; cited from earlier work
[2] = system: S. aureus NCTC 12493; assay: Co-culture on mupirocin-containing blood agar: growth of mupirocin-resistant mutant colonies; assay type: cell-based, Staphylococcus aureus; conditions: ≈10^9 CFU S. aureus on 0.2 μm filter, blood agar with 8 μg/mL mupirocin, no non-pathogenic microorganism
Experimental: (§1) A 5 McFarland suspension of Corynebacterium aurimucosum CIP 102616 was prepared as described in Example 2, and 300 μl of this suspension (≈10^7 CFU) were inoculated by swabbing on a 90 mm diameter blood agar plate containing 8 μg/mL of mupirocin; 300 μl of saline was inoculated as “negative control” (mupirocin-containing agar plate not inoculated with C. aurimucosum). Materials and methods were otherwise as described in Example 2, except that ≈10^9 CFU of S. aureus (ATCC 29213 or NCTC 12493) were spread out on the 0.2 μm filter placed on top of the agar plate.

[3] = system: S. aureus ATCC 29213; assay: as above; assay type: cell-based, Staphylococcus aureus; conditions: ≈10^9 CFU S. aureus on 0.2 μm filter, blood agar with 8 μg/mL mupirocin, no non-pathogenic microorganism
Experimental: as §1

[4] = system: S. aureus ATCC 29213; assay: Co-culture on fosfomycin-containing blood agar: growth of fosfomycin-resistant mutant colonies; assay type: cell-based, Staphylococcus aureus; conditions: ≈10^7 CFU S. aureus on 0.2 μm filter, blood agar with 50 μg/mL fosfomycin, no non-pathogenic microorganism
Experimental: (§2) A 5 McFarland suspension of Corynebacterium aurimucosum CIP 102616 was prepared from a 48 h-culture on Columbia 5% sheep blood agar at 35+/−2° C., and 300 μl of this suspension (≈10^7 CFU) were inoculated by swabbing on a 90 mm diameter blood agar plate containing 50 μg/mL of fosfomycin; 300 μl of saline was inoculated as “negative control” (fosfomycin-containing agar plate not inoculated with C. aurimucosum). A 10 McFarland suspension of S. aureus (ATCC 29213 or NCTC 12493) was prepared as described in Example 1, and 20 μl drops of this suspension (≈10^7 CFU) were spread out on a 47-mm diameter, 0.2 μm filter placed on top of the agar plate. Plates were incubated at 35+/−2° C., and the growth of fosfomycin-resistant mutants was determined as described in Example 1. Fosfomycin MIC values of bacteria forming fosfomycin-resistant colonies on “negative-control” plates were determined using the agar dilution method.
(§3) Serial 1/5 dilutions were prepared from a 100 McFarland suspension of C. aurimucosum and 250 μl of each bacterial suspension was inoculated by swabbing on a 90 mm diameter blood agar plate containing 50 μg/mL of fosfomycin, in order to obtain ≈10^9, ≈2×10^8, ≈4×10^7, ≈8×10^6, ≈1.6×10^6, ≈3.2×10^5, ≈6.4×10^4, ≈1.3×10^4, ≈2.5×10^3, ≈5×10^2, ≈10^2, and ≈20 CFU per plate. Materials and methods were otherwise as described in Example 2. […]

[5] = system: S. aureus fosfomycin-resistant mutants; assay: Fosfomycin MIC of bacteria forming colonies on negative-control plates, agar dilution method; assay type: cell-based, Staphylococcus aureus
Experimental: as §2

[6] = system: Corynebacterium species; conditions: natural resistance; fosfomycin resistance breakpoint >32 μg/mL; cited from earlier work
[7] = system: S. aureus NCTC 12493; assay: Co-culture on fosfomycin-containing blood agar: growth of fosfomycin-resistant mutant colonies; assay type: cell-based, Staphylococcus aureus; conditions: ≈10^7 CFU S. aureus on 0.2 μm filter, blood agar with 50 μg/mL fosfomycin, no non-pathogenic microorganism
Experimental: as §2, §3

[8] = system: S. epidermidis Rif^R mutant; assay: Rifampicin MIC, agar dilution method; assay type: cell-based; conditions: Staphylococcus epidermidis, rifampicin resistance breakpoint MIC >16 μg/mL
[9] = system: S. aureus rifampicin-resistant mutants; assay: Rifampicin MIC of bacteria forming colonies on negative-control plates, agar dilution method; assay type: cell-based, Staphylococcus aureus
Experimental: A 5 McFarland suspension of CIP 102616 Rif^R was prepared from a 48 h-culture on Columbia 5% sheep blood agar at 35+/−2° C., and 300 μl of this suspension (≈10^7 CFU) was inoculated by swabbing on a 90 mm diameter blood agar plate containing 20 μg/mL of rifampicin; 300 μl of saline was inoculated as “negative control” (rifampicin-containing agar plate not inoculated with CIP 102616 Rif^R). Materials and methods were otherwise as described in Example 2, except that one 40 μl drop (≈10^7 CFU) was spread out on each filter. Rifampicin MIC values of bacteria forming rifampicin-resistant colonies on “negative-control” plates were determined using the agar dilution method.

[10] = system: C. aurimucosum Rif^R mutant; assay: Rifampicin MIC, agar dilution method; assay type: cell-based; conditions: Corynebacterium aurimucosum, rifampicin resistance breakpoint MIC >16 μg/mL
Experimental: Spontaneous rifampicin-resistant colonies were obtained in one step by plating ≈10^9 CFU of C. aurimucosum CIP 102616 on blood agar plates supplemented with 20 μg/mL of rifampicin. Five clones were re-isolated on rifampicin-containing plates, and one of them was selected (C. aurimucosum CIP 102616 Rif^R mutant).

For C/C(=C\C(=O)OCCCCCCCCC(=O)O)C[C@@H]1OC[C@H](C[C@@H]2O[C@H]2[C@@H](C)[C@H](C)O)[C@@H](O)[C@H]1O [mupirocin], the “mupirocin MIC values” [1] is listed as > 16 mg/L, the “mupirocin-resistant mutant colonies, mupirocin alone” value [2] is listed as “Colonies of mupirocin-resistant mutants were detected” and the “mupirocin-resistant mutant colonies, mupirocin alone” value [3] is listed as “Colonies of mupirocin-resistant mutants were detected”.

With C[C@@H]1O[C@@H]1P(=O)(O)O [fosfomycin] the “fosfomycin-resistant mutant colonies, fosfomycin alone” value [4] was “colonies of fosfomycin-resistant mutants were detected; also recorded: Fosfomycin-resistant colonies developed”, the MIC ([5]; Staphylococcus aureus, read-out: fosfomycin MIC values of colonies on negative-control plates) was ≥ 32 mg/L and the “share of fosfomycin-resistant mutant colonies with MIC of 64 μg/mL or higher” value ([5]; agar dilution method) was “≈ 50%”. For the same compound, the “share of fosfomycin-resistant mutant colonies with MIC of 256 μg/mL or higher” value ([5]; agar dilution method) was “≈ 30%”, the “fosfomycin MIC values” [6] was > 256 mg/L and the “fosfomycin-resistant mutant colonies, fosfomycin alone” value [7] was “colonies of fosfomycin-resistant mutants were detected; also recorded: Fosfomycin-resistant colonies developed”.

In the case of CO[C@H]1/C=C/O[C@@]2(C)Oc3c(C)c(O)c4c(O)c(c(/C=N/N5CCN(C)CC5)c(O)c4c3C2=O)NC(=O)/C(C)=C\C=C\[C@H](C)[C@H](O)[C@@H](C)[C@@H](O)[C@@H](C)[C@H](OC(C)=O)[C@@H]1C [rifampicin], the MIC [8] was > 256 mg/L, the MIC ([9]; Staphylococcus aureus, read-out: rifampicin MIC values of colonies on negative-control plates) was ≥ 16 mg/L and the “share of rifampicin-resistant mutants with MIC of 64 μg/mL or higher” value ([9]; agar dilution method) was 100%. For the same compound, the “share of rifampicin-resistant mutants with MIC of 128 μg/mL or higher” value ([9]; agar dilution method) was “≈ 75%”, the “share of rifampicin-resistant mutants with MIC of 256 μg/mL or higher” value ([9]; agar dilution method) was “≈ 25%” and the MIC [10] was > 256 mg/L.
